According to PubChem BioAssay (NCI):
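Cultured in 96-well plates, cells were exposed to test compound for 48 hours across five concentrations. Definition used: TGI = concentration required for complete inhibition of growth.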

Experiments:
Test in all cases: DTP human tumour cell line panel, 48 h
SN12C renal = system: SN12C renal
HS 578T breast = system: HS 578T breast
M14 melanoma = system: M14 melanoma
HL-60(TB) leukemia = system: HL-60(TB) leukemia
UACC-62 melanoma = system: UACC-62 melanoma
SK-OV-3 ovarian = system: SK-OV-3 ovarian
TK-10 renal = system: TK-10 renal
SNB-19 CNS = system: SNB-19 CNS
OVCAR-5 ovarian = system: OVCAR-5 ovarian
MCF7 breast = system: MCF7 breast
OVCAR-3 ovarian = system: OVCAR-3 ovarian
SW-620 colon = system: SW-620 colon
MOLT-4 leukemia = system: MOLT-4 leukemia
NCI-H522 lung = system: NCI-H522 lung
MDA-MB-231 breast = system: MDA-MB-231 breast
HCT-15 colon = system: HCT-15 colon
BT-549 breast = system: BT-549 breast
SNB-75 CNS = system: SNB-75 CNS
HOP-92 NSCLC = system: HOP-92 NSCLC
ACHN renal = system: ACHN renal
NCI-H226 lung = system: NCI-H226 lung
LOX IMVI melanoma = system: LOX IMVI melanoma
COLO 205 colon = system: COLO 205 colon
A549 NSCLC = system: A549 NSCLC
CAKI-1 renal = system: CAKI-1 renal
A498 renal = system: A498 renal
T-47D breast = system: T-47D breast
PC-3 prostate = system: PC-3 prostate
K-562 leukemia = system: K-562 leukemia
KM12 colon = system: KM12 colon
DU-145 prostate = system: DU-145 prostate
SF-295 CNS = system: SF-295 CNS
NCI/ADR-RES ovarian = system: NCI/ADR-RES ovarian
HOP-62 NSCLC = system: HOP-62 NSCLC
SR leukemia = system: SR leukemia
HT29 colon = system: HT29 colon
UACC-257 melanoma = system: UACC-257 melanoma
UO-31 renal = system: UO-31 renal
SF-539 CNS = system: SF-539 CNS
MALME-3M melanoma = system: MALME-3M melanoma
HCT-116 colon = system: HCT-116 colon
MDA-MB-435 = system: MDA-MB-435
NCI-H460 lung = system: NCI-H460 lung
NCI-H23 lung = system: NCI-H23 lung
IGROV1 ovarian = system: IGROV1 ovarian
RXF 393 renal = system: RXF 393 renal
U251 CNS = system: U251 CNS
RPMI-8226 leukemia = system: RPMI-8226 leukemia
786-0 renal = system: 786-0 renal
OVCAR-8 ovarian = system: OVCAR-8 ovarian
SK-MEL-5 melanoma = system: SK-MEL-5 melanoma
SK-MEL-28 melanoma = system: SK-MEL-28 melanoma
SK-MEL-2 melanoma = system: SK-MEL-2 melanoma
OVCAR-4 ovarian = system: OVCAR-4 ovarian
SF-268 CNS = system: SF-268 CNS
EKVX NSCLC = system: EKVX NSCLC
HCC-2998 colon = system: HCC-2998 colon

SMILES: O=C(CC(Cl)(Cl)C(Cl)(Cl)Cl)c1ccccc1
- TGI (SN12C renal): 3.09 µM
- TGI (HS 578T breast): 56.2 µM
- TGI (M14 melanoma): 7.4 µM
- TGI (HL-60(TB) leukemia): 29.9 µM
- TGI (UACC-62 melanoma): 6.56 µM
- TGI (SK-OV-3 ovarian): 38.2 µM
- TGI (TK-10 renal): 18.4 µM
- TGI (SNB-19 CNS): 39.2 µM
- TGI (OVCAR-5 ovarian): 25.8 µM
- TGI (MCF7 breast): 23.6 µM
- TGI (OVCAR-3 ovarian): 4.33 µM
- TGI (SW-620 colon): 12.2 µM
- TGI (MOLT-4 leukemia): 5.02 µM
- TGI (NCI-H522 lung): 7.3 µM
- TGI (MDA-MB-231 breast): 5.48 µM
- TGI (HCT-15 colon): 4.56 µM
- TGI (BT-549 breast): 39.9 µM
- TGI (SNB-75 CNS): 29.3 µM
- TGI (HOP-92 NSCLC): 59.5 µM
- TGI (ACHN renal): 5.29 µM
- TGI (NCI-H226 lung): 16.2 µM
- TGI (LOX IMVI melanoma): 3.74 µM
- TGI (COLO 205 colon): 13.2 µM
- TGI (A549 NSCLC): 39.1 µM
- TGI (CAKI-1 renal): 4.39 µM
- TGI (A498 renal): 34.6 µM
- TGI (T-47D breast): 7.08 µM
- TGI (PC-3 prostate): 29.1 µM
- TGI (K-562 leukemia): 4.57 µM
- TGI (KM12 colon): 14.8 µM
- TGI (DU-145 prostate): 15.1 µM
- TGI (SF-295 CNS): 19.4 µM
- TGI (NCI/ADR-RES ovarian): 43.9 µM
- TGI (HOP-62 NSCLC): 16.4 µM
- TGI (SR leukemia): 4.37 µM
- TGI (HT29 colon): 4.72 µM
- TGI (UACC-257 melanoma): 3.81 µM
- TGI (UO-31 renal): 14.5 µM
- TGI (SF-539 CNS): 31.3 µM
- TGI (MALME-3M melanoma): 8.91 µM
- TGI (HCT-116 colon): 4.91 µM
- TGI (MDA-MB-435): 5.34 µM
- TGI (NCI-H460 lung): 32.5 µM
- TGI (NCI-H23 lung): 20.5 µM
- TGI (IGROV1 ovarian): 18.3 µM
- TGI (RXF 393 renal): 4.25 µM
- TGI (U251 CNS): 18.3 µM
- TGI (RPMI-8226 leukemia): 6.09 µM
- TGI (786-0 renal): 11.4 µM
- TGI (OVCAR-8 ovarian): 8.53 µM
- TGI (SK-MEL-5 melanoma): 24.3 µM
- TGI (SK-MEL-28 melanoma): 5.3 µM
- TGI (SK-MEL-2 melanoma): 32.3 µM
- TGI (OVCAR-4 ovarian): 5.67 µM
- TGI (SF-268 CNS): 55.4 µM

SMILES: CCC(CN(C)C)C(=O)c1ccco1 (configuration not stated)
- TGI (SN12C renal): > 100 µM
- TGI (HS 578T breast): > 100 µM
- TGI (M14 melanoma): > 100 µM
- TGI (UACC-62 melanoma): > 100 µM
- TGI (SK-OV-3 ovarian): > 100 µM
- TGI (TK-10 renal): > 100 µM
- TGI (SNB-19 CNS): > 100 µM
- TGI (OVCAR-5 ovarian): > 100 µM
- TGI (MCF7 breast): > 100 µM
- TGI (OVCAR-3 ovarian): > 100 µM
- TGI (SW-620 colon): > 100 µM
- TGI (MOLT-4 leukemia): 96.8 µM
- TGI (NCI-H522 lung): 35.6 µM
- TGI (MDA-MB-231 breast): > 100 µM
- TGI (HCT-15 colon): > 100 µM
- TGI (BT-549 breast): > 100 µM
- TGI (SNB-75 CNS): > 100 µM
- TGI (HOP-92 NSCLC): > 100 µM
- TGI (ACHN renal): > 100 µM
- TGI (LOX IMVI melanoma): > 100 µM
- TGI (A549 NSCLC): > 100 µM
- TGI (CAKI-1 renal): > 100 µM
- TGI (A498 renal): > 100 µM
- TGI (T-47D breast): > 100 µM
- TGI (PC-3 prostate): > 100 µM
- TGI (EKVX NSCLC): > 100 µM
- TGI (K-562 leukemia): > 100 µM
- TGI (KM12 colon): > 100 µM
- TGI (DU-145 prostate): > 100 µM
- TGI (SF-295 CNS): > 100 µM
- TGI (NCI/ADR-RES ovarian): > 100 µM
- TGI (HOP-62 NSCLC): > 100 µM
- TGI (SR leukemia): > 100 µM
- TGI (HT29 colon): > 100 µM
- TGI (UACC-257 melanoma): > 100 µM
- TGI (UO-31 renal): > 100 µM
- TGI (MALME-3M melanoma): > 100 µM
- TGI (HCT-116 colon): > 100 µM
- TGI (MDA-MB-435): > 100 µM
- TGI (NCI-H460 lung): > 100 µM
- TGI (NCI-H23 lung): > 100 µM
- TGI (IGROV1 ovarian): > 100 µM
- TGI (RXF 393 renal): > 100 µM
- TGI (U251 CNS): > 100 µM
- TGI (RPMI-8226 leukemia): > 100 µM
- TGI (786-0 renal): > 100 µM
- TGI (OVCAR-8 ovarian): > 100 µM
- TGI (SK-MEL-28 melanoma): > 100 µM
- TGI (SK-MEL-2 melanoma): > 100 µM
- TGI (OVCAR-4 ovarian): > 100 µM
- TGI (HCC-2998 colon): > 100 µM
- TGI (SF-268 CNS): > 100 µM
